The source of these data is patent US20130210846A1, “USE OF NOVEL PAN-CDK INHIBITORS FOR TREATING TUMORS” (BAYER INTELLECTUAL PROPERTY GMBH, priority 2010, published 2013).

The test system of one test is H1975. In words: Proliferation assay H1975. It is filed as cell-based. The following applies: Homo sapiens, NCI-H1975, 96 h; H1975, non-small-cell bronchial carcinoma; 4 days, crystal violet. The protocol:
(§1) Cultivated human tumor cells (originally obtained from ATCC, HeLa-MaTu and HeLa-MaTu-ADR, originally obtained from Epo GmbH, Berlin, Germany) were plated at a density of 1000 to 5000 cells/measuring point, depending on the growth rate of the cell line, in a 96-well multititer plate in 200 μl of growth medium (DMEM/HAMS F12, 2 mM L-glutamine, 10% fetal calf serum). After 24 hours the cells of one plate (zero-point plate) were stained with crystal violet (see below), whereas the medium of the other plates was replaced with fresh culture medium (200 μl), to which the test substances had been added at various concentrations (0 μM, and in the range 0.01-30 μM; the final concentration of the solvent dimethyl sulfoxide was 0.5%). The cells were incubated for 4 days in the presence of the test substances. Cellular proliferation was determined by staining the cells with crystal violet: the cells were fixed by adding 20 μl/measuring point of an 11% glutaraldehyde solution for 15 min at room temperature. After washing the fixed cells with water three times, the plates were dried at room temperature. The cells were stained by adding 100 μl/measuring point of a 0.1% crystal violet solution (pH adjusted to pH3 by adding acetic acid). After washing the stained cells with water three times, the plates were dried at room temperature. The dye was dissolved by adding 100 μl/measuring point of a 10% acetic acid solution. The extinction was determined photometrically at a wavelength of 595 nm. The percentage change in cell growth was calculated by standardization of the measured values to the extinction values of the zero-point plate (=0%) and the extinction of the untreated (0 μM) cells (=100%). The measured data were standardized to 0% inhibition (cell proliferation without inhibitor) and 100% inhibition (zero-point plate). The IC50 values were determined by means of a 4-parameter fit using the company's own software.
(§2) The substances were examined in the following cell lines which, in an exemplary manner, represent the stated indications: […]

In the next test the test system is PC3. In words: Proliferation assay PC3. It is filed as cell-based. The following applies: Homo sapiens, PC-3, 96 h; PC3, prostate carcinoma; 4 days, crystal violet. The protocol:
as §1, §2

The test system of the next test is MDA-MB 453. Nature of the test: Proliferation assay MDA-MB 453. The following applies: Homo sapiens, 96 h; MDA-MB 453, estrogen receptor-negative mamma carcinoma; 4 days, crystal violet. It is filed as cell-based. The procedure: as §1, §2
For a further test, the system named is MIA PaCa-2. In words: Proliferation assay MIA PaCa-2. The class given is cell-based. The following applies: Homo sapiens, 96 h; MIA PaCa-2, pancreas carcinoma; 4 days, crystal violet. The procedure:
as §1, §2

Another test concerns DU145. In words: Proliferation assay DU145. It is filed as cell-based, human. The following applies: DU145, prostate carcinoma, 4 days, crystal violet. In short, it runs like this:
(§3)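 IC50 values come from a 4-parameter fit of crystal violet proliferation data, with the zero-point plate set as 100% inhibition. Compound exposure lasted 4 days at up to 30 μM in 10% FCS medium.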

In a further test the test system is Caco-2. In words: Proliferation assay Caco-2. The following applies: Caco-2, colon/rectum carcinoma, 4 days, crystal violet. It is filed as cell-based, human. In short, it runs like this:
as §3

A further test has as its system NCI-H460. In words: Proliferation assay NCI-H460. It is filed as cell-based, human. The following applies: NCI-H460, non-small-cell bronchial carcinoma, 4 days, crystal violet. In short, it runs like this:
as §3

The next test deals with A431. In words: Proliferation assay A431. The following applies: Homo sapiens, A-431, 96 h; A431, skin: epidermis; 4 days, crystal violet. It is filed as cell-based. The protocol:
as §1, §2

A further test concerns the target T1, CDK1/CycB (Homo sapiens, UniProt P06493).
T1 construct: purchased ProQinase GmbH, Freiburg, Germany; host or cells: baculovirus-infected insect cells (Sf9)
In words: CDK1/CycB kinase assay (Assay 1). The class given is biochemical. The following applies: 0.5 μM ATP, histon IIIS, 10 min 22° C.; read-out: CDK1/CycB (Assay 1) Concentration for half-maximal inhibition of the enzyme activity, IC50. In short, it runs like this: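 Insect-cell CDK1/CycB-GST was incubated 10 min at 22 °C with compound (0.01–100 μM), 0.5 μM ATP plus 33P-γ-ATP and histone IIIS as substrate, in pH 8.0 Tris buffer. Incorporated 33P measured by filter-binding scintillation. IC50 from 4-parameter fit, normalized to no-inhibitor and no-enzyme controls.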

T1 sequence (P06493 whole entry): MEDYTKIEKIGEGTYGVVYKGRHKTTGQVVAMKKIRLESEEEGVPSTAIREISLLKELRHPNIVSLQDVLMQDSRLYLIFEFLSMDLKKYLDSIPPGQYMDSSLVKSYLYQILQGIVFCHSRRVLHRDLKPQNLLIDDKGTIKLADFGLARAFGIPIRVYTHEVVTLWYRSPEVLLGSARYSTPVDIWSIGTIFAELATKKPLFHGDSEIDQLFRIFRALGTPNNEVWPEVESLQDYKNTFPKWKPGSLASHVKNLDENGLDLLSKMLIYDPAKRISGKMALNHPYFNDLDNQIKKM
T1 sequence (P14635 whole entry partner): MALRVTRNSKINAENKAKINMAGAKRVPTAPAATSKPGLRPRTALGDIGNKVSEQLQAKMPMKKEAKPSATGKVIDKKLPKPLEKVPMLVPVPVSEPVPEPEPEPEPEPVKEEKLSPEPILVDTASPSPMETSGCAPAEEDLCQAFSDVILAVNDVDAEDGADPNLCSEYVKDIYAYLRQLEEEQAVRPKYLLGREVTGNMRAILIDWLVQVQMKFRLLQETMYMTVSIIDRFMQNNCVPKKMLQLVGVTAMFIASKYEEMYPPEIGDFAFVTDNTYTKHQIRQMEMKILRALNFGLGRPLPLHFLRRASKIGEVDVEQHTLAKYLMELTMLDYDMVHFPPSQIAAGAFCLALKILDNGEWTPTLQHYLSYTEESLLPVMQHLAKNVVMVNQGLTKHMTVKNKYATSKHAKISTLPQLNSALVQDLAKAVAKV

Consider `C[C@@H](O)[C@@H](C)Nc1nc(Nc2ccc(S(=N)(=O)C3CC3)cc2)ncc1C(F)(F)F` (mixture of isomers) [Example 4-SI-1, (RS)—S-Cyclopropyl-S-(4-{[4-{[(1R,2R)-2-hydroxy-1-methylpropyl]amino}-5-(trifluoromethyl)-pyrimidin-2-yl]amino}phenyl)sulfoximide], for which the IC50 was 16 nM in the test on H1975; < 10 nM with PC3; 11 nM with MDA-MB 453; 14 nM in the test with MIA PaCa-2; 31 nM with DU145 (Homo sapiens, DU-145, 96 h); 35 nM in the test with Caco-2 (Homo sapiens, Caco-2, 96 h). In addition, the IC50 was 16 nM in the test with NCI-H460 (Homo sapiens, NCI-H460, 96 h); 20 nM in the test with A431; 6 nM on CDK1/CycB.
As for `C[C@@H](O)[C@@H](C)Oc1nc(Nc2ccc(S(C)(=N)=O)cc2)ncc1C(F)(F)F` (mixture of isomers) [Example 2-SI-2, (RS)—S-(4-{[4-{[(1R,2R)-2-Hydroxy-1-methylpropyl]oxy}-5-(trifluoromethyl)pyrimidin-2-yl]-amino}phenyl)-S-methylsulfoximide], the IC50 in the test on DU145 stood at 9 nM; with Caco-2, 24 nM; with NCI-H460, 16 nM.
`C[C@@H](O)[C@@H](C)Oc1nc(Nc2ccc(S(C)(=N)=O)cc2)ncc1C(F)(F)F` (single isomer, unassigned) [Example 2-SI-2]: the IC50 in the test on H1975 was 14 nM; in the test with PC3, 27 nM; with MDA-MB 453, 16 nM; with MIA PaCa-2, 19 nM; with A431 it was 17 nM; on CDK1/CycB it was 4 nM.
